Here are results for one substance from US5084564A, “Production of oligosaccharide fractions having antithrombotic properties by controlled chemical depolymerization of heparin” (Bioiberica, S.A., priority 1988, dated 1992).

For the series the following is noted: rat, in vivo, sc.

Consider heparin, for which the bioavailability is reported as 48-60%.
